Results: patent publication US20210361539A1, “NONAQUEOUS COMPOSITION FOR EXTERNAL USE ON SKIN AND METHOD FOR PRODUCING THE SAME” (CHANEL PARFUMS BEAUTE, priority 2017, published 2021)

Assay: Particle size measurement by dynamic light scattering
Assay type: physicochemical
Details: steps (a) to (e) without palmitoyl-L-carnitine chloride
Experimental: The particle size of particles contained in the nonaqueous composition for external use on the skin immediately after preparation was measured by the dynamic light scattering method.
Specifically, the measurement was performed on the number mode using a nanoparticle analysis system (Zetasizer Nano ZSP model manufactured by Malvern Instruments Ltd.).

- Particle size of composition containing particles of the surfactant alone: about 2.5 nm
Substance: sucrose erucic acid ester
